“Also recorded” adds a separate entry of the source.
Columns and labels:
[1] = system: TyrRAS+Ink4a/Arf−/− melanoma; experiment: Tumor growth in Tyr-RAS+Ink4a/Arf−/− melanoma GEMM under daily treatment; format: in vivo, mice
Text: Animals: All mice were housed in accord with the University of North Carolina at Chapel Hill (UNC-CH) Institutional Animal Care and Use Committee. Young adult (6-12 weeks of age), virgin female C57B1/6 mice were purchased from Jackson Labs (Bar Harbor, Me., United States of America). C3H mice were obtained from Harlan Sprague-Dawley Inc. (Indianapolis, Ind., United States of America). Experiments on tumor-bearing TyrRAS+Ink4a/Arf−/− mice (see Chin et al., Genes & development, 11, 2822-2834 (1997)) were performed in animals fully backcrossed (N>10) to the FVB/n background. Mice were treated as previously described (see Ramsey et al., Cancer Res., 67, 4732-4741 (2007)) with PD 0332991 obtained from Pfizer Inc., (New York, N.Y., United States of America) given by oral gavage at a dose of 150 mg/kg body weight. TyrRAS+Ink4a/Arf−/− mice were serially observed until tumor development. When tumors were about 0.2 cm^2 in size, daily PD 0332991 treatment was begun. The data shown in FIGS. 2B and 2D were normalized to tumor size at the time of therapy initiation. Tumor-bearing mice were euthanized at the indicated times for morbidity, tumor ulceration, or tumor size >1.5 cm in diameter.
See Walker et al., Genes Chromosomes Cancer, 22, 157-163 (1998); and Daniotti et al., Oncogene, 23, 5968-5977 (2004). […]

[2] = system: TyrRAS+Ink4a/Arf−/− melanoma; experiment: Tumor-bearing mice given 7.5 Gy TBI: tumor growth and mortality; format: in vivo
Procedure: Tumor growth with (open squares) or without (closed diamonds) a single dose of 6-acetyl-8-cyclopentyl-5-methyl-2-(5-piperazin-1-yl-pyridin-2-ylamino)-8H-pyrido-[2,3-d]-pyrimidin-7-one (PD0332991) administered 4 hours prior to 7.5 gray (Gy) total body irradiation (TBI). […] Error bars indicate standard error of the mean.
FIG. 2E is a set of Kaplan-Meyer survival curves showing overall mortality, tumor-specific mortality and mortality to radiation toxicity of tumor bearing mice treated with 7.5 gray (Gy) of total body irradiation (TBI) with (solid line, n=8) or without (dashed line n=11) 6-acetyl-8-cyclopentyl-5-methyl-2-(5-piperazin-1-yl-pyridin-2-ylamino)-8H-pyrido-[2,3-d]-pyrimidin-7-one (PD 0332991) treatment 4 hours prior to ionizing radiation (IR). P-values calculated using the log-rank test.
Young adult (6-12 weeks of age), virgin female C57B1/6 mice were purchased from Jackson Labs (Bar Harbor, Me., United States of America). […] Experiments on tumor-bearing TyrRAS+Ink4a/Arf−/− mice (see Chin et al., Genes & development, 11, 2822-2834 (1997)) were performed in animals fully backcrossed (N>10) to the FVB/n background. Mice were treated as previously described (see Ramsey et al., Cancer Res., 67, 4732-4741 (2007)) with PD 0332991 obtained from Pfizer Inc., (New York, N.Y., United States of America) given by oral gavage at a dose of 150 mg/kg body weight. TyrRAS+Ink4a/Arf−/− mice were serially observed until tumor development. When tumors were about 0.2 cm^2 in size, daily PD 0332991 treatment was begun. […] Tumor-bearing mice were euthanized at the indicated times for morbidity, tumor ulceration, or tumor size >1.5 cm in diameter.
For TBI experiments, mice were irradiated using a ^137Cs source (AECL Gammacell 40 Irradiator, Atomic Energy of Canada Ltd, Mississauga, Ontario, Canada). Delivered doses were at or near the empirically determined LD90 of 7.5 Gy, consistent with prior studies.

[3] = system: KPTR1, KPTR4 and KPTR5 melanoma cell lines; experiment: Cell cycle analysis (BrdU incorporation in vitro) in murine melanoma cell lines; format: cell-based; settings: 24 hours treatment
Text: FIG. 2C is a set of graphs showing the dose-response curves for cell cycle analysis in murine (KPTR1, KPTR4 and KPTR5 from TyrRAS+Ink4a/Arf−/−mice) melanoma cell lines. […] The percentage of cells in the G1 phase is indicated by the data shown in the closed squares. The percentage of cells in the S phase is shown by the data in the open triangles. The percentage of cells in the G2/M phase is indicated by the data in the open circles. The percentage of cells actively proliferating as marked by Ki67 positive staining is shown in closed diamonds. Error bars are +/− the standard error of the mean (SEM).
Cell Lines: KPTR1, KPTR4. and KPTR5 were derived from tumor-bearing TyrRAS+Ink4a/Arf−/− by standard procedures and cultured in RPMI+10% fetal bovine serum (FBS). Telomerized HDFs (tHDFs, also known as HS68) were cultured in DMEM+10% FBS with penicillin and streptomycin. […]
BrdU Incorporation in vitro: Cells were plated and allowed to adhere overnight or at least 6 hours prior to adding CDK4/6 inhibitor at the indicated concentrations. […] The cells were then washed, trypsinized, pelleted, fixed, permeabilized, stained, and measured on a flow cytometer as described in manufacturer directions for the BrdU Kit (BD Biosciences Pharmingen, San Diego, Calif., United States of America).

[4] = treatment 4 hours prior to 7.5 Gy TBI

SMILES: CC(=O)c1c(C)c2cnc(Nc3ccc(N4CCNCC4)cn3)nc2n(C2CCCC2)c1=O [PD0332991, 6-acetyl-8-cyclopentyl-5-methyl-2-(5-piperazin-1-yl-pyridin-2-ylamino)-8H-pyrido-[2,3-d]-pyrimidin-7-one]
- mice that developed new tumors while receiving treatment ([1]; 150 mg/kg daily, in the 8-16 days): two of five
- growth of established tumors ([1]; 150 mg/kg oral gavage daily, tumor-bearing Tyr-RAS+Ink4a/Arf−/− mice): no regression or decrease in tumor growth; also recorded: insensitive
- anti-tumor effect of therapeutic IR ([2]; single dose 4 hours prior to 7.5 Gy TBI): does not decrease that anti-tumor effect of therapeutic radiotherapy
- mortality to radiation toxicity [2, 4]: does appear to provide protection from radiation toxicity
- tumor-related mortality [2, 4]: does not appear to increase tumor-related mortality
- sensitivity of derivative tumor cell lines in vitro [3]: insensitive

Source: patent US20110224221A1, “HEMATOPOIETIC PROTECTION AGAINST IONIZING RADIATION USING SELECTIVE CYCLIN-DEPENDENT KINASE 4/6 INHIBITORS” (priority 2008, published 2011)
